Data: the NIST ThermoML archive (doi:10.1021/je050200w)

Assays:
[1] = xn = mol fraction of the nth substance listed; conditions: 101 kPa, Liquid
[2] = 101 kPa, Liquid

CCCCCCCCO [octan-1-ol] + CCCCCCCCCCO
[1], x1 = 1
Conditions | mass density [kg/m3] | viscosity [mPa·s]
283.15 K | 832.1 | 13.49
288.15 K | 828.6 | 10.87
293.15 K | 825.2 | 8.944
298.15 K | 821.9 | 7.498
303.15 K | 818.4 | 6.273
308.15 K | 815 | 5.342
313.15 K | 811.4 | 4.54

CCCCCCCCCCCO [1-undecanol]
[2]
Conditions | mass density [kg/m3] | viscosity [mPa·s]
293.15 K | 832.2 | 17.28
298.15 K | 828.8 | 13.72
303.15 K | 825.4 | 11.52
308.15 K | 821.7 | 9.35
313.15 K | 818.6 | 7.841

CCCCCCCCCO [nonan-1-ol]
[2]
Conditions | mass density [kg/m3] | viscosity [mPa·s]
283.15 K | 835 | 17.44
288.15 K | 831.5 | 14.27
293.15 K | 828.1 | 11.63
298.15 K | 824.7 | 9.519
303.15 K | 821.3 | 7.806
308.15 K | 817.8 | 6.604
313.15 K | 814.3 | 5.668

CCCCCCCCCCCO [1-undecanol] + CCCCCCCCCO
[1]
Conditions | mass density, 293.15 K [kg/m3] | mass density, 298.15 K [kg/m3] | mass density, 303.15 K [kg/m3] | mass density, 308.15 K [kg/m3] | mass density, 313.15 K [kg/m3] | viscosity, 293.15 K [mPa·s] | viscosity, 298.15 K [mPa·s] | viscosity, 303.15 K [mPa·s] | viscosity, 308.15 K [mPa·s] | viscosity, 313.15 K [mPa·s]
x2 = 0 | 832.2 | 828.8 | 825.4 | 821.7 | 818.6 | 17.28 | 13.72 | 11.52 | 9.35 | 7.841
x2 = 0.1002 | 831.7 | 828.3 | 824.9 | 821.5 | 818.1 | 16.58 | 13.43 | 11.15 | 9.247 | 7.609
x2 = 0.1996 | 831.3 | 827.9 | 824.5 | 821.1 | 817.7 | 16.08 | 12.83 | 10.73 | 8.926 | 7.373
x2 = 0.3004 | 830.9 | 827.5 | 824.1 | 820.7 | 817.3 | 15.38 | 12.55 | 10.37 | 8.681 | 7.298
x2 = 0.4001 | 830.6 | 827.2 | 823.8 | 820.3 | 816.9 | 14.91 | 11.98 | 9.973 | 8.333 | 7.04
x2 = 0.5 | 830.2 | 826.8 | 823.4 | 819.9 | 816.5 | 14.29 | 11.52 | 9.577 | 8.014 | 6.872
x2 = 0.6002 | 829.8 | 826.4 | 823 | 819.5 | 816.1 | 13.61 | 11.32 | 9.2 | 7.71 | 6.627
x2 = 0.6994 | 830.1 | 826.6 | 823.2 | 819.7 | 816.3 | 12.84 | 10.55 | 8.746 | 7.333 | 6.267
x2 = 0.7995 | 829.1 | 825.6 | 822.2 | 818.8 | 815.3 | 12.68 | 10.35 | 8.272 | 7.133 | 6.138
x2 = 0.8988 | – | – | – | 818.1 | – | – | – | – | 6.897 | –
x2 = 0.8997 | 828.4 | 825 | 821.5 | – | 814.6 | 12.13 | 9.929 | 8.195 | – | 5.93

CCCCCCCCCCO [decan-1-ol]
[2]
Conditions | mass density [kg/m3] | viscosity [mPa·s]
283.15 K | 836.6 | 22.06
288.15 K | 833.3 | 17.99
293.15 K | 829.9 | 14.39
298.15 K | 826.5 | 11.74
303.15 K | 823 | 9.561
308.15 K | 819.6 | 8
313.15 K | 816.3 | 6.831

CCCCCCCCCCCO [1-undecanol] + CCCCCCCCO
[1]
Conditions | mass density, 293.15 K [kg/m3] | mass density, 298.15 K [kg/m3] | mass density, 303.15 K [kg/m3] | mass density, 308.15 K [kg/m3] | mass density, 313.15 K [kg/m3] | viscosity, 293.15 K [mPa·s] | viscosity, 298.15 K [mPa·s] | viscosity, 303.15 K [mPa·s] | viscosity, 308.15 K [mPa·s] | viscosity, 313.15 K [mPa·s]
x2 = 0 | 832.2 | 828.8 | 825.4 | 821.7 | 818.6 | 17.28 | 13.72 | 11.52 | 9.35 | 7.841
x2 = 0.1003 | 831.5 | 828.1 | 824.8 | 821.3 | 817.8 | 16.4 | 13.35 | 10.95 | 9.118 | 7.665
x2 = 0.2001 | 831 | 827.6 | 824.2 | 820.7 | 817.3 | 15.21 | 12.54 | 10.36 | 8.645 | 7.35
x2 = 0.2998 | 830.5 | 827 | 823.6 | 820.2 | 816.8 | 14.4 | 11.97 | 9.808 | 8.207 | 6.995
x2 = 0.4001 | – | – | 822.9 | – | – | – | – | 9.281 | – | –
x2 = 0.4002 | 829.7 | 826.3 | – | 819.5 | 816 | 13.8 | 11.23 | – | 7.773 | 6.652
x2 = 0.4999 | 829 | 825.6 | 822.2 | 818.8 | 815.3 | 12.78 | 10.64 | 8.745 | 7.392 | 6.336
x2 = 0.5998 | 828.3 | 824.9 | 821.5 | 818.1 | 814.6 | 12.19 | 9.948 | 8.252 | 6.989 | 5.991
x2 = 0.6998 | 827.7 | 824.3 | 820.8 | 817.4 | 813.9 | 10.95 | 9.276 | 7.691 | 6.49 | 5.615
x2 = 0.8 | 826.9 | 823.5 | 820.1 | 816.6 | 813.1 | 10.24 | 8.693 | 7.271 | 6.137 | 5.295
x2 = 0.8999 | 826.2 | 822.8 | 819.3 | 815.8 | 812.3 | 9.416 | 8.002 | 6.723 | 5.728 | 4.957

CCCCCCCCCCO [decan-1-ol] + CCCCCCCCCO
[1], x2 = 0
Conditions | mass density [kg/m3] | viscosity [mPa·s]
283.15 K | 836.6 | 22.06
288.15 K | 833.3 | 17.99
293.15 K | 829.9 | 14.39
298.15 K | 826.5 | 11.74
303.15 K | 823 | 9.561
308.15 K | 819.6 | 8
313.15 K | 816.3 | 6.831

CCCCCCCCCO [nonan-1-ol] + CCCCCCCCCCCO
[1], x1 = 1
Conditions | mass density [kg/m3] | viscosity [mPa·s]
293.15 K | 828.1 | 11.63
298.15 K | 824.7 | 9.519
303.15 K | 821.3 | 7.806
308.15 K | 817.8 | 6.604
313.15 K | 814.3 | 5.668

CCCCCCCCCCCO [1-undecanol] + CCCCCCCCCCO
[1]
Conditions | mass density, 293.15 K [kg/m3] | mass density, 298.15 K [kg/m3] | mass density, 303.15 K [kg/m3] | mass density, 308.15 K [kg/m3] | mass density, 313.15 K [kg/m3] | viscosity, 293.15 K [mPa·s] | viscosity, 298.15 K [mPa·s] | viscosity, 303.15 K [mPa·s] | viscosity, 308.15 K [mPa·s] | viscosity, 313.15 K [mPa·s]
x2 = 0 | 832.2 | 828.8 | 825.4 | 821.7 | 818.6 | 17.28 | 13.72 | 11.52 | 9.35 | 7.841
x2 = 0.1007 | 832 | 828.7 | 825.2 | 821.6 | 818.2 | 16.88 | 13.52 | 11.27 | 9.368 | 7.805
x2 = 0.1997 | 831.5 | 828.1 | 824.8 | 821.4 | 818 | 16.68 | 13.31 | 11.08 | 9.233 | 7.778
x2 = 0.2999 | 831.4 | 828 | 824.6 | 821.2 | 817.8 | 16.14 | 13.23 | 10.89 | 9.057 | 7.655
x2 = 0.3998 | 831.2 | 827.8 | 824.4 | 821 | 817.5 | 16.08 | 12.88 | 10.7 | 8.909 | 7.579
x2 = 0.4997 | 831 | 827.6 | 824.2 | 820.8 | 817.3 | 15.59 | 12.79 | 10.51 | 8.76 | 7.452
x2 = 0.5978 | 830.8 | 827.4 | 824 | 820.6 | 817.1 | 15.59 | 12.58 | 10.34 | 8.652 | 7.323
x2 = 0.6999 | 830.5 | 827.1 | 823.7 | 820.3 | 816.9 | 15.28 | 12.35 | 10.14 | 8.504 | 7.249
x2 = 0.7989 | 830.4 | 827 | 823.5 | 820.2 | 816.7 | 14.5 | 12.12 | 9.958 | 8.357 | 7.068
x2 = 0.8995 | 830.1 | 826.8 | 823.3 | 819.9 | 816.5 | 14.76 | 11.98 | 9.777 | 8.185 | 6.94

CCCCCCCCO [octan-1-ol]
[2]
Conditions | mass density [kg/m3] | viscosity [mPa·s]
283.15 K | 832.1 | 13.49
288.15 K | 828.6 | 10.87
293.15 K | 825.2 | 8.944
298.15 K | 821.9 | 7.498
303.15 K | 818.4 | 6.273
308.15 K | 815 | 5.342
313.15 K | 811.4 | 4.54

CCCCCCCCO [octan-1-ol] + CCCCCCCCCO
[1], x1 = 1
Conditions | mass density [kg/m3] | viscosity [mPa·s]
283.15 K | 832.1 | 13.49
288.15 K | 828.6 | 10.87
293.15 K | 825.2 | 8.944
298.15 K | 821.9 | 7.498
303.15 K | 818.4 | 6.273
308.15 K | 815 | 5.342
313.15 K | 811.4 | 4.54

CCCCCCCCO [octan-1-ol] + CCCCCCCCCCCO
[1], x1 = 1
Conditions | mass density [kg/m3] | viscosity [mPa·s]
293.15 K | 825.2 | 8.944
298.15 K | 821.9 | 7.498
303.15 K | 818.4 | 6.273
308.15 K | 815 | 5.342
313.15 K | 811.4 | 4.54

CCCCCCCCCCO [decan-1-ol] + CCCCCCCCCCCO
[1], x1 = 1
Conditions | mass density [kg/m3] | viscosity [mPa·s]
293.15 K | 829.9 | 14.39
298.15 K | 826.5 | 11.74
303.15 K | 823 | 9.561
308.15 K | 819.6 | 8
313.15 K | 816.3 | 6.831
